According to PMC3518498 (Oncoimmunology, 2012):

Legend:
[1] = target: T1, HLA-A2 (A*0201) (Homo sapiens, UniProt P04439, D140Y/D185E/D98H/E176V/E277Q/G131W/G231S/I119V/I121R/I166T/I218V/L300P/L318F/N151K/N90K/P208A/P217A/Q86G/Q94H/R138H/R169H/T345S); test: iTopia initial binding assay; conditions: Table 1
[2] = target: T1, HLA-A2 (A*0201); test: iTopia stability; conditions: Table 1
[3] = system: HLA-A2 transgenic (HHD) mice; test: Peptide immunization of HHD mice, IFNγ intracellular staining of splenocytes; assay type: in vivo, mouse; conditions: for Average % CD8+IFNγ+ cells: group average, splenocytes stimulated with native peptide

**Q.** ALCRWGLLV [H.5.V9] was tested. Which “Initial binding, % pos control” value [1] did it give?
**A.** 72.3 % pos control

**Q.** And the “Binding after 8 h incubation w/o free peptide, % pos control” value [2]?
**A.** 33.9 % pos control

**Q.** What about the “MHC complex stability (T1/2)” value [2] of the same sequence?
**A.** 6.2 h

**Q.** ILAKFLHWLV [T.540(10).V10] was tested. Which “Initial binding, % pos control” value [1] did it give?
**A.** 99.8 % pos control

**Q.** What about the “Binding after 8 h incubation w/o free peptide, % pos control” value [2] of the same sequence?
**A.** 88.8 % pos control

**Q.** What about the “MHC complex stability (T1/2)” value [2] of the same sequence?
**A.** 16.8 h

**Q.** What about the “Average % CD8+IFNγ+ cells” value ([3]; HHD mice) of the same sequence?
**A.** > 0.1 % CD8+IFNγ+ cells

**Q.** With AVVGILLVV [H.657] as the sequence, how does the “Initial binding, % pos control” value [1] read?
**A.** 20.6 % pos control

**Q.** And the “Binding after 8 h incubation w/o free peptide, % pos control” value [2]?
**A.** 12.0 % pos control

**Q.** And the “MHC complex stability (T1/2)” value [2]?
**A.** 8.6 h

**Q.** What does the source list for FLHWLMSVYV [T.544]?
**A.** Initial binding, % pos control [1]: 48.0 % pos control; Binding after 8 h incubation w/o free peptide, % pos control [2]: 74.4 % pos control; MHC complex stability (T1/2) [2]: 40.0 h

**Q.** How did the “Initial binding, % pos control” value [1] turn out when LLDTRTLEV [T.934] was run?
**A.** 80.2 % pos control

**Q.** And the “Binding after 8 h incubation w/o free peptide, % pos control” value [2]?
**A.** 66.3 % pos control

**Q.** What about the “MHC complex stability (T1/2)” value [2] of the same sequence?
**A.** 21.6 h

**Q.** Which “Initial binding, % pos control” value [1] does the source give for FLVDDFLLV [T.865.F1] here?
**A.** 88.4 % pos control

**Q.** And the “Binding after 8 h incubation w/o free peptide, % pos control” value [2]?
**A.** 76.2 % pos control

**Q.** And the “MHC complex stability (T1/2)” value [2]?
**A.** 13.2 h

**Q.** What about the “Average % CD8+IFNγ+ cells” value ([3]; HHD mice) of the same sequence?
**A.** > 0.1 % CD8+IFNγ+ cells

**Q.** And the “Fold higher native peptide-specific T-cell response with analog” value ([3]; analog vs. native peptide immunization, HHD mice)?
**A.** 1.9 fold

**Q.** With ALVGIMIGV [C.687.L2] as the sequence, how does the “Initial binding, % pos control” value [1] read?
**A.** 73.7 % pos control

**Q.** And the “Binding after 8 h incubation w/o free peptide, % pos control” value [2]?
**A.** 76.2 % pos control

**Q.** And the “MHC complex stability (T1/2)” value [2]?
**A.** 26.3 h

**Q.** Which “Initial binding, % pos control” value [1] does the source give for YLSGANLNV [C.605.V9] here?
**A.** 73.2 % pos control

**Q.** And the “Binding after 8 h incubation w/o free peptide, % pos control” value [2]?
**A.** 78.5 % pos control

**Q.** What about the “MHC complex stability (T1/2)” value [2] of the same sequence?
**A.** 27.4 h

**Q.** Which “Initial binding, % pos control” value [1] does the source give for KLFGSLAFL here?
**A.** 79.7 % pos control

**Q.** And the “Binding after 8 h incubation w/o free peptide, % pos control” value [2]?
**A.** 114.9 % pos control

**Q.** What about the “MHC complex stability (T1/2)” value [2] of the same sequence?
**A.** 40.0 h

**Q.** With FLDLQVNSL [T.986] as the sequence, how does the “Initial binding, % pos control” value [1] read?
**A.** 69.5 % pos control

**Q.** And the “Binding after 8 h incubation w/o free peptide, % pos control” value [2]?
**A.** 54.5 % pos control

**Q.** What about the “MHC complex stability (T1/2)” value [2] of the same sequence?
**A.** 7.8 h

**Q.** ILAKFLHWLM [T.540(10)] was tested. Which “Corresponding native peptide: CMIR, % CD8+IFNγ+ cells” value ([3]; HHD mice immunized with the native peptide, Table 1) did it give?
**A.** 0.06 % CD8+IFNγ+ cells

**Q.** What about the “Corresponding native peptide: Fraction of responders” value ([3]; HHD mice immunized with the native peptide, responder > 0.1%, Table 1) of the same sequence?
**A.** 1/5

**Q.** VVLGVVFGV [H.665.V9] was tested. Which “Initial binding, % pos control” value [1] did it give?
**A.** 65.8 % pos control

**Q.** What about the “Binding after 8 h incubation w/o free peptide, % pos control” value [2] of the same sequence?
**A.** 72.7 % pos control

**Q.** What about the “MHC complex stability (T1/2)” value [2] of the same sequence?
**A.** 40.0 h

**Q.** For RLTVTTITV [C.310.L2], which “Initial binding, % pos control” value [1] is on record?
**A.** 61.2 % pos control

**Q.** What about the “Binding after 8 h incubation w/o free peptide, % pos control” value [2] of the same sequence?
**A.** 64.4 % pos control

**Q.** What about the “MHC complex stability (T1/2)” value [2] of the same sequence?
**A.** 25.4 h

**Q.** And the “Range of individual mouse responses, % CD8+IFNγ+ cells” value ([3]; HHD mice, individual animals)?
**A.** 3.0–14.3%

**Q.** What does the source list for ALVGILLVVV [H.657(10).L2]?
**A.** Initial binding, % pos control [1]: 13.8 % pos control; Binding after 8 h incubation w/o free peptide, % pos control [2]: 17.8 % pos control
